Experimental data taken from patent US20110092456A1, “Methods of increasing cAMP levels and uses thereof” (priority 2009, published 2011).
Entries after “also recorded” stand apart in the source; their conditions may differ. Where two headings read alike, the source gives them in different places.

Assays:
[1] = system: rat model of myocardial ischemia-reperfusion injury; test: Rat myocardial ischemia-reperfusion infarct size protocol; format: in vivo; conditions: rats; for infarct size (as a percentage of the AR): FIG. 1, 3-day oral pretreatment; for infarct size: 3-day oral pretreatment (atorvastatin 2 mg/kg/d, cilostazol 20 mg/kg/d)
Method: Adenosine 5′ triphosphate [γ32P]
Hearts were excised and the left ventricle was sliced transversely into 6 sections. Slices were weighed and incubated for 15 minutes at 37° C. in 1% buffered (pH=7.4) 2,3,5-triphenyl-tetrazolium-chloride (TTC), fixed in a 10% formaldehyde and photographed in order to identify the AR (uncolored by the blue dye), the infarct size (unstained by TTC), and the non-ischemic zones (colored by blue dye). The area of AR and infarct size in each slice were determined by planimetry, converted into percentages of the whole for each slice, and multiplied by the weight of the slice and the results summed to obtain the weight of the myocardial AR and infarct size.

[2] = 41 patients; cilostazol 200 mg/d versus aspirin 250 mg/d; cited from earlier work
[3] = system: middle cerebral artery occlusion; conditions: rat, cited from earlier work
[4] = cited from earlier work
[5] = system: permanent middle cerebral artery occlusion; conditions: mouse; 30 mg/kg intraperitoneally three times (12 h before, 1 h before, just after ischemia); cited from earlier work
[6] = system: Akt; test: Western blot of myocardial Akt; format: in vivo, rat; conditions: rats, 3-day oral pretreatment, immunoblot, result in words
Method: (§1) Adenosine 5' triphosphate [γ32P] […] The supernatant was collected and the total protein concentration was determined using Lowry Protein Assay. The protein samples were subjected to SDS-PAGE with 4-20% gradient polyacrylamide gel and transferred to pure nitrocellulose membrane (0.45 μm) (Bio-Rad). After blocking with 5% skim milk in Tris-buffered saline, the membrane was incubated overnight at 4° C. with primary antibodies against eNOS, Akt, […]-eNOS, […]-eNOS, […]-Akt, and PTEN, and secondarily with HRP-conjugated anti-mouse or anti-rabbit antibodies. The immunoblots were developed using ECL western Blotting Detection Reagent (Amersham). The protein signals were pictured by an image-scanner and analyzed using Image J software (National Institutes of health, USA). The strength of each signal was normalized to the corresponding β-actin stain signal. Data are expressed as a ratio between the protein and the corresponding β-actin signal density.

[7] = system: cAMP-dependent protein kinase (PKA); test: Myocardial protein kinase A (PKA) activity, rat; format: in vivo; conditions: rats; 3-day oral pretreatment; myocardial samples; result in words
[8] = system: myocardial infarct size; conditions: rabbit; intravenous 1 mg/kg/min for 5 min before myocardial ischemia; cited from earlier work
[9] = system: Akt; conditions: rat; oral 30 mg/kg after 2 hours of middle cerebral artery occlusion; cited from earlier work
[10] = system: PTEN; test: Western blot of myocardial PTEN; format: in vivo, rat; conditions: rats, 3-day oral pretreatment, immunoblot, result in words
Method: as §1

[11] = system: myocardial adenosine; test: Myocardial adenosine levels (HPLC); format: in vivo, rat; conditions: rats; 3-day oral pretreatment; result in words
Method: Adenosine 5′ triphosphate [γ32P] […] Adenosine was analyzed by high performance liquid chromatography (HPLC) according to the procedure of Wojcik and Neff {Wojcik, 1982 #325}. […] The protein concentration was determined by Lowry assay. Ten volumes of 0.25 M Ba(OH)2 was added and the samples were centrifuged at 30,000×g for 10 minutes. The supernatants were then transferred to a conical tube and 5 μl of chloroacetaldehyde added to 20 μl of supernatant. The tubes were capped, mixed and submerged in a boiling water bath for 10 min. The samples were analyzed by HPLC using a Waters C18 reversed phase 150 mm×4.6 mm column. […] The excitation monochromator was set to a wavelength of 270 nm and the cutoff wavelength of the emission filter was 389 nm.

[12] = system: eNOS; test: Western blot of myocardial eNOS; format: in vivo, rat; conditions: rats, 3-day oral pretreatment, immunoblot, result in words
Method: as §1

[13] = system: eNOS; conditions: atorvastatin 3-day pretreatment, 1 mg/kg/d; cited from earlier work
[14] = rat; 16 hours after the third dose, 10 mg/kg/d; cited from earlier work
[15] = system: myocardial infarct size; conditions: 3-day pretreatment, cited from earlier work
[16] = system: calcium dependent NOS; conditions: atorvastatin 3-day pretreatment, 1 mg/kg/d; cited from earlier work
[17] = 30 min ischemia, 4 h reperfusion, mean±SEM

O=C1CCc2cc(OCCCCc3nnnn3C3CCCCC3)ccc2N1 [cilostazol]
infarct size (as a percentage of the AR) ([1]; result in words): significantly smaller than in the control group | infarct size [1, 17]: 56 ± 4 mg | infarct size ([1]; result in words): reduced infarct size; also recorded: significant reduction in infarct size | 6-month angiographic outcomes [2]: better 6-month angiographic outcomes than aspirin | minimal lumen diameter at follow-up [2]: larger | percent diameter stenosis [2]: smaller | plaque area (intravascular ultrasound) [2]: smaller | brain infarct size ([3]; 2 h occlusion, 24 h reperfusion, oral cilostazol 30 mg/kg, aspirin 300 mg/kg, clopidogrel 30 mg/kg): reduced brain infarct size | brain infarct size ([3]; oral 30 mg/kg at 5 min and 4 h after completion of 2 hours of middle cerebral artery occlusion): reduces brain infarct size | 6-month restenosis rate ([4]; 50 patients, primary stenting for ST elevation acute myocardial infarction, cilostazol 100 mg BID versus aspirin alone): 0% | in-stent stenosis ([4]; 70 patients, Palmaz-Schatz stenting, cilostazol 200 mg/d, aspirin 81 mg/d): 8.6% | 6-month restenosis after successful coronary stenting ([4]; CREST, cilostazol 100 mg bid, all patients on clopidogrel 30 days and aspirin 6 months): 22.0% | 9-month target lesion revascularization rate per patient ([4]; RACTS trial, cilostazol 100 mg bid 6 months, ticlopidine 250 mg bid 1 month): 22.9% | brain infarct size measured at 24 h [5]: reduced brain infarct size | myocardial levels of Ser-473 P-Akt [6]: augmented myocardial levels | myocardial total Akt levels [6]: did not affect | myocardial levels of Ser-473 P-Akt ([6]; listed as CIL): significantly increased | cAMP-dependent protein kinase (PKA) activity [7]: significantly increased | effect of preconditioning by 2 min of ischemia [8]: potentiates the effect of preconditioning | myocardial infarct size [8]: does not affect myocardial infarct size | Akt phosphorylation [9]: augmented Akt phosphorylation | myocardial PTEN levels [10]: significantly reduce PTEN levels | myocardial PTEN levels ([10]; listed as CIL): significantly decreased | myocardial adenosine levels [11]: small increase in myocardial adenosine levels | myocardial levels of Ser-633 P-eNOS [12]: augmented myocardial levels | myocardial levels of Ser-1177 P-eNOS [12]: augmented myocardial levels | myocardial total eNOS levels [12]: did not affect | myocardial levels of Ser-633 P-eNOS ([12]; listed as CIL): significantly increased | myocardial levels of Ser-1177 P-eNOS ([12]; listed as CIL): significantly increased

CC(C)c1c(C(=O)Nc2ccccc2)c(-c2ccccc2)c(-c2ccc(F)cc2)n1CC[C@@H](O)C[C@@H](O)CC(=O)O [atorvastatin]
infarct size (as a percentage of the AR) ([1]; result in words): did not affect infarct size | infarct size [1, 17]: 128 ± 8 mg | infarct size ([1]; result in words): did not affect infarct size | myocardial levels of P-eNOS [13]: did not affect | blood levels of atorvastatin [14]: comparable to those seen in humans treated with atorvastatin 80 mg/d | myocardial levels of Ser-473 P-Akt [6]: small, statistically significant effect | myocardial total Akt levels [6]: did not affect | infarct size ([15]; 1 mg/kg/d): did not limit infarct size | infarct size ([15]; oral, 2 mg/kg/d): does not affect infarct size | infarct size ([15]; oral, 10 and 75 mg/kg/d): reduces infarct size | myocardial PTEN levels [10]: no effect | myocardial adenosine levels [11]: small increase in myocardial adenosine levels | myocardial levels of Ser-1177 P-eNOS [12]: but not on Ser-1177 P-eNOS and Ser-633 P-eNOS levels; also recorded: did not increase | myocardial total eNOS levels [12]: did not affect | calcium dependent NOS activity [16]: did not affect
